Literature values as cited in patent publication US11103547B2, “Methods for disrupting biofilms” (priority 2016, dated 2021).

Test system: MRSA biofilm
Settings: shown previously; positive control

CCCCCCCCCC(=O)N[C@@H](Cc1c[nH]c2ccccc12)C(=O)N[C@H](CC(N)=O)C(=O)N[C@@H](CC(=O)O)C(=O)N[C@@H]1C(=O)NCC(=O)N[C@@H](CCCN)C(=O)N[C@@H](CC(=O)O)C(=O)N[C@H](C)C(=O)N[C@@H](CC(=O)O)C(=O)NCC(=O)N[C@H](CO)C(=O)N[C@@H]([C@H](C)CC(=O)O)C(=O)N[C@@H](CC(=O)c2ccccc2N)C(=O)O[C@@H]1C [Daptomycin]
disruption of biomass biofilm of MRSA: disrupt biomass biofilm of MRSA
